What was measured:
Cochliobolus sativus = test: Spot Blotch of Wheat (COCHSA), whole-plant fungicide test; format: in vivo; conditions: Bipolaris sorokiniana, 24 h, one-day protectant test, read-out: COCHSA percent control of disease; for pest or weed control at 200 ppm: foliar, 200 ppm on foliage
Outline: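 Percent control is derived from disease severity relative to untreated inoculated plants, scored 4–28 days later. Spore inoculation followed foliar spraying by one day (protectant) or preceded it by two days (curative); plants kept humid 1-2 days before greenhouse. Spray dose was 200 ppm, occasionally 100, 75 or 8.3 ppm, in acetone/Triton X100 water.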

Colletotricum lagenarium = test: Cucumber Anthracnose (COLLLA), whole-plant fungicide test; format: in vivo; conditions: Cucumis sativus, foliar, 24 h, 200 ppm on foliage, one-day protectant test, read-out: COLLLA percent control of disease
Erysiphe cichoracaerum = test: Cucumber Powdery Mildew (ERYSCI), whole-plant fungicide test; format: in vivo; conditions: 200 ppm on foliage, one-day protectant test; for pest or weed control at 200 ppm: Erysiphe, foliar, 24 h, read-out: ERYSCI percent control of disease
[1] = system: Erysiphe graminis f. sp. tritici; test: Powdery Mildew of Wheat (ERYSGT), whole-plant fungicide test; format: in vivo; conditions: Blumeria graminis, 24 h, one-day protectant test, read-out: ERYSGT percent control of disease; for pest or weed control at 200 ppm: foliar, 200 ppm on foliage
Leptosphaeria nodorum = test: Glume Blotch of Wheat (LEPTNO), whole-plant fungicide test; format: in vivo; conditions: Parastagonospora nodorum, foliar, 24 h, 200 ppm on foliage, one-day protectant test, read-out: LEPTNO percent control of disease
Phytophthora infestans = test: whole plant or invertebrate; format: in vivo; conditions: Phytophthora infestans, in Solanum lycopersicum, foliar, 24 h, read-out: PHYTIN percent control of disease, 200 ppm on foliage, tomato, one-day protectant test
[2] = system: Puccinia recondita tritici; test: Leaf Rust of Wheat (PUCCRT), whole-plant fungicide test; format: in vivo; conditions: 200 ppm on foliage, one-day protectant test; for pest or weed control at 200 ppm: Puccinia recondita, foliar, 24 h, read-out: PUCCRT percent control of disease
Magnaporthe grisea = test: whole plant or invertebrate; format: in vivo; conditions: for pest or weed control at 200 ppm: Pyricularia oryzae, in Oryza sativa, foliar, 24 h, read-out: PYRIOR percent control of disease, 200 ppm on foliage, rice, one-day protectant test
Septoria tritici = test: Speckled Leaf Blotch of Wheat (SEPTTR), whole-plant fungicide test; format: in vivo; conditions: Zymoseptoria tritici, 24 h, one-day protectant test, read-out: SEPTTR percent control of disease; for pest or weed control at 200 ppm: foliar, 200 ppm on foliage

SMILES	pest or weed control at 100 ppm (Cochliobolus sativus; 100 ppm (footnote a))	pest or weed control at 200 ppm (Colletotricum lagenarium)	pest or weed control at 200 ppm (Erysiphe cichoracaerum)	pest or weed control at 100 ppm ([1]; 100 ppm (footnote a))	pest or weed control at 200 ppm (Leptosphaeria nodorum)	pest or weed control at 200 ppm (Phytophthora infestans)	pest or weed control at 200 ppm [2]	pest or weed control at 200 ppm (Magnaporthe grisea)	pest or weed control at 100 ppm (Septoria tritici; 100 ppm (footnote a))	pest or weed control at 200 ppm (Cochliobolus sativus)	ERYSCI percent control of disease (Erysiphe cichoracaerum)	pest or weed control at 200 ppm [1]	PUCCRT percent control of disease [2]	PYRIOR percent control of disease (Magnaporthe grisea; 200 ppm on foliage, rice, one-day protectant test)	pest or weed control at 200 ppm (Septoria tritici)	melting point
CC(Nc1ncnc2scc(Cl)c12)c1ccc(OCl)nc1 (centres unmarked) [Compound 29]	0 to 49%	0 to 49%	80 to 100%	80 to 100%	80 to 100%	80 to 100%	80 to 100%	80 to 100%	50 to 79%							
OCC(Nc1ncnc2scc(Cl)c12)c1ccccc1 (centres unmarked) [Compound 30]		0 to 49%			0 to 49%	0 to 49%				0 to 49%	*** (*** is 80-100 percent control of disease)	0 to 49%	*** (*** is 80-100 percent control of disease)	*** (*** is 80-100 percent control of disease)	0 to 49%	120 °C
OCC(Cc1ccccc1)Nc1ncnc2scc(Cl)c12 (centres unmarked) [Compound 31]		0 to 49%	80 to 100%		0 to 49%	80 to 100%	80 to 100%	80 to 100%		0 to 49%		0 to 49%			0 to 49%	104 to 105 °C
O[C@@H](CNc1ncnc2scc(Cl)c12)c1ccccc1 [Compound 32]		0 to 49%	0 to 49%		0 to 49%	0 to 49%	80 to 100%	80 to 100%		0 to 49%		0 to 49%			0 to 49%	111 to 112 °C
CC(C)c1ccc(C(C)Nc2ncnc3scc(Cl)c23)nc1 (centres unmarked) [Compound 34]		50 to 79%	80 to 100%		80 to 100%	0 to 49%	80 to 100%	80 to 100%		0 to 49%		80 to 100%			50 to 79%	
CC(Nc1ncnc2scc(Cl)c12)c1ccc(OCc2ccccc2)cn1 (centres unmarked) [Compound 35]		80 to 100%	50 to 79%		50 to 79%	50 to 79%	80 to 100%	80 to 100%		0 to 49%		0 to 49%			50 to 79%	
COc1cnc(C(C)Nc2ncnc3scc(Cl)c23)nc1 (centres unmarked) [Compound 36]		0 to 49%	0 to 49%		0 to 49%	80 to 100%	80 to 100%	80 to 100%		0 to 49%		0 to 49%			50 to 79%	
CC(COc1ccccn1)Nc1ncnc2scc(Cl)c12 (centres unmarked) [Compound 37, 5-(chlorothieno[2,3-d]pyrimidin-4-yl)-[1-methyl-2-(pyridin-2-yloxy)ethyl]amine]		0 to 49%	80 to 100%		80 to 100%	0 to 49%	80 to 100%	80 to 100%		0 to 49%		50 to 79%			0 to 49%	
CC(Nc1ncnc2scc(Cl)c12)c1ccc(OCC(F)(F)F)nc1 (centres unmarked) [Compound 38]		0 to 49%	80 to 100%		50 to 79%	80 to 100%	80 to 100%	80 to 100%		0 to 49%		80 to 100%			50 to 79%	
CCOc1ccc(C(C)Nc2ncnc3scc(Cl)c23)cn1 (centres unmarked) [Compound 39]		0 to 49%	80 to 100%		80 to 100%	50 to 79%	80 to 100%	80 to 100%		0 to 49%		80 to 100%			80 to 100%	
CC(Nc1ncnc2scc(Cl)c12)c1nc2ccccc2s1 (centres unmarked) [Compound 41]		0 to 49%	80 to 100%		80 to 100%	80 to 100%	80 to 100%	80 to 100%		50 to 79%		80 to 100%			80 to 100%	
CSc1ccc(C(C)Nc2ncnc3scc(Cl)c23)cc1 (centres unmarked) [Compound 42]		0 to 49%	80 to 100%		50 to 79%	0 to 49%	80 to 100%	80 to 100%		0 to 49%		50 to 79%			80 to 100%	
CC(Nc1ncnc2scc(Cl)c12)c1ccc(C(F)(F)F)nc1 (centres unmarked) [Compound 44]		0 to 49%	80 to 100%		50 to 79%	50 to 79%	80 to 100%	80 to 100%		50 to 79%		0 to 49%			0 to 49%	
COc1ccc(C(C)Nc2ncnc3scc(Br)c23)cn1 (centres unmarked) [Compound 45, (5-Bromothieno[2,3-d]pyrimidin-4-yl)-[1-(2-methoxypyridin-5-yl)ethyl]amine]		0 to 49%	80 to 100%		50 to 79%	80 to 100%	80 to 100%	80 to 100%		0 to 49%		80 to 100%			50 to 79%	
CCOC(=O)c1sc2ncnc(NC(C)c3ccc(OC)cc3)c2c1O (centres unmarked) [Compound 52, 5-Hydroxy-4-[1-(4-methoxyphenyl)ethylamino]thieno[2,3-d]pyrimidine-6-carboxylic Acid Ethyl Ester]		0 to 49%			0 to 49%	0 to 49%	0 to 49%	0 to 49%		0 to 49%					50 to 79%	151 to 152 °C

Source: patent publication US8008487B2, “Substituted thieno[2,3-D]pyrimidines as fungicides” (priority 2004, dated 2011)
